Assay results from patent publication US12421257B2, “Compositions and methods for inhibiting group II intron RNA” (YALE UNIVERSITY, priority 2018, dated 2025).
≈ marks a conversion by molar mass, not a printed value. Where two headings read alike, the source gives them in different places.

Tests used:
HEK-293T cells = assay: Cytotoxicity in HEK-293T cells (Cell Titer Glo); format: cell-based, human; details: for IC50: Homo sapiens
[1] = test system: COX1 aI5γ group II intron; assay: Group II intron splicing in S. cerevisiae by RT-qPCR; format: cell-based, Saccharomyces cerevisiae; details: qRT-PCR, four hours with compound
Protocol: A culture of S. cerevisiae was grown overnight with shaking in YPGE at 30° C. The saturated culture was then diluted and grown to mid-log phase in YPGE. Equal volumes of DMSO or compounds dissolved in DMSO were added to individual cultures (final concentrations of NED-2020: 64 μg/mL, APY-101: 32 μg/mL, APY-081: 32 μg/mL, APY-014: 64 μg/mL, Amphotericin B: 8 μg/mL), and incubated for four hours. Cells were harvested by centrifugation, washed with 500 μL ice-cold MilliQ water, centrifuged again, and snap-frozen in liquid nitrogen. Total RNA was isolated using E.Z.N.A. Yeast Purification Kit (Omega Bio-tek) according to manufacturer's procedures. The RNA was eluted in 50 μL of RNase/DNase-free water (ThermoFisher), followed by DNAse treatment with RQ1 DNase (Promega), for 1 hour at 37° C. Then it was mixed with 6 μl of 3M NaOAc and precipitated with 75% EtOH at −20° C. overnight. Then the RNA was reverse-transcribed with SuperScript III (ThermoFisher) following manufacturer's recommendations with 200 ng Random Hexamer Primers (ThermoFisher) and RNasin (ThermoFisher) in a 20 μl reaction. After reverse transcription, RNA was degraded by addition of 2N NaOH (2 μl) and incubation at 95° C. for 5 minutes. After cooling on ice for 5 minutes, 2 μl of 1M HCl and 2 μl of 3M NaOAc were added to the reaction mixture, and cDNA was precipitated with 75% EtOH at −20° C. for 30 minutes and resuspended in RNase/DNase-free water. The cDNA levels were quantified with real-time PCR using LightCycler 480 SYBR Green I (Roche) and a CFX384 Real-Time PCR Detection System (Bio-Rad) in triplicate. Relative levels of indicated RNA species from different conditions were normalized according to the ΔΔCT method via the following equation (Livak and Schmittgen, 2001, Methods, 25:402-408): ΔΔCT=[(CTCOX1total or unspliced−CTACT1or PGK1)test compound−(CTCOX1total or unspliced−CTACT1or PGK1)DMSO)].
The average and SEM of 2^-ΔΔCT is reported for each sample from three independent replicates. The following primer sets were used to amplify indicated targets: ACT1: […] (SEQ ID NO:1), […] (SEQ ID NO:2); PGK1: […] […]

C. parapsilosis = assay: MIC determination against C. parapsilosis; format: cell-based, Candida parapsilosis; details: Lodderomyces parapsilosis; RPMI-1640, 35° C. or 37° C., turbidity after 24 and 48 hours
Procedure, shortened: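 Broth microdilution in RPMI-1640 with C. parapsilosis at 0.5×10^3 to 2.5×10^3 CFU/mL; test compounds 0.25-128 μg/ml final, 1% DMSO. Plates incubated at 35° C or 37° C, turbidity read visually at 24 and 48 h. MIC = lowest concentration without visible growth; triplicates.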

[2] = test system: S. cerevisiae wild-type (NP40-36a) and mtDNA intronless (XPM46) strains; assay: S. cerevisiae growth assay, wild-type vs mtDNA intronless strain; format: cell-based, Saccharomyces cerevisiae; details: YPGE medium, 64 or 128 μg/mL
Protocol: Cultures of S. cerevisiae (Wild-type: NP40-36a, mtDNA intronless: XPM46 (Perez-Martinez et al., 2003, EMBO J, 22:5951-5961) were grown overnight with shaking to mid-log phase in YPGE at 30° C. Equal numbers of cells were harvested and serially-diluted 1:5. Cells were then plated on YPD or YPGE media containing DMSO or Intronistat A dissolved in DMSO (final concentration: 64 or 128 μg/mL). Plates were grown for one day (YPD plates), two days (YPGE DMSO plate), or 18 days (YPGE 18 (Intronistat A) plate) at 30° C. Experiment was replicated twice to ensure reproducibility of growth phenotype.

[3] = cytotoxicity, 24 hours with compound, read-out: IC50 HEK-293
[4] = 72 hours growth in the presence of compounds, read-out: IC50 HEK-293T viability after 72-hour incubation

| Compound | IC50 (HEK-293T cells; [3]) | Splicing of COX1 aI5γ group II intron in S. cerevisiae in vivo (in words) [1] | IC50 (HEK-293T cells; [4]) | MIC (C. parapsilosis) | Toxicity in human cells (in words) (HEK-293T cells; 24 hours incubation) | Growth of intronless vs wild-type strain in presence of compound (in words) [2] |
| --- | --- | --- | --- | --- | --- | --- |
| O=C1/C(=C/c2cc(O)cc(O)c2)Oc2cc(O)cc(O)c21 [APY-014, (Z)-2-(3,5-Dihydroxybenzylidene)-4,6-dihydroxybenzofuran-3(2H)-one] | > 64 µg/mL | inactive |  |  |  |  |
| Cc1ccncc1-c1ccc2oc(C(=O)c3cc(O)c(O)c(O)c3)cc2c1 [APY-081, 5-{[5-(4-Methylpyridin-3-yl)-1-benzofuran-2-yl]carbonyl}benzene-1,2,3-triol] | > 128 µg/mL | inhibit splicing | 0.79 ± 0.09 µg/mL | 4 to 8 µg/mL (≈ 11.1 to 22.1 µM) |  |  |
| O=C(c1cc(O)c(O)c(O)c1)c1cc2cc(-c3ccc(CO)cc3)ccc2o1 [APY-084, 5-({5-[4-(Hydroxymethyl)phenyl]-1-benzofuran-2-yl}carbonyl)benzene-1,2,3-triol] | 1.1 ± 0.1 µg/mL |  | 1 ± 0.04 µg/mL | 2 to 4 µg/mL (≈ 5.31 to 10.6 µM) |  |  |
| Br.CCN(CC)Cc1ccc(-c2ccc3oc(C(=O)c4cc(O)c(O)c(O)c4)cc3c2)cc1 [APY-090, 5-[(5-{4-[(Diethylamino)methyl]phenyl}-1-benzofuran-2-yl)carbonyl]benzene-1,2,3-triol hydrobromide] | 1.7 ± 0.6 µg/mL |  |  | 4 to 8 µg/mL |  |  |
| CCCCNS(=O)(=O)c1ccc(-c2ccc(-c3nc(-c4cc(O)c(O)c(O)c4)cs3)cc2)cc1 [APY-093, N-Butyl-4-{4-[4-(3,4,5-trihydroxyphenyl)-1,3-thiazol-2-yl]phenyl}benzene-1-sulfonamide] | 7.2 ± 1.5 µg/mL |  |  | 32 to 64 µg/mL (≈ 64.4 to 129 µM) |  |  |
| CC(=O)c1ccc(-c2ccc3oc(C(=O)c4cc(O)c(O)c(O)c4)cc3c2)cc1 [APY-101, 1-(4-{2-[(3,4,5-Trihydroxyphenyl)carbonyl]-1-benzofuran-5-yl}phenyl)ethan-1-one] | > 128 µg/mL | inhibit splicing | 1.3 ± 0.1 µg/mL | 2 to 4 µg/mL (≈ 5.15 to 10.3 µM) | did not show toxicity | intronless strain is much more resistant |
